Test results taken from ChEMBL document CHEMBL5241112, “Insights into the recent progress in the medicinal chemistry of pyranopyrimidine analogs” (RSC Med Chem, 2022).
Values after ≈ are worked out from the molar mass of the structure shown.

Key:
[1] = Antioxidant activity assessed as DPPH radical scavenging activity at 100 ug/ml incubated for 30 mins by spectrophotometric analysis; assay type: functional; details: dose 100.0 µg/ml
Bacillus subtilis = test: Antibacterial activity against Bacillus subtilis assessed as diameter of inhibition zone at 100 ug/ml by disc diffusion method; assay type: functional; details: read-out: DIZ
Escherichia coli [2] = test: Antibacterial activity against Escherichia coli assessed as diameter of inhibition zone at 100 ug/ml by disc diffusion method; assay type: functional; details: read-out: DIZ
Klebsiella pneumoniae [3] = test: Antibacterial activity against Klebsiella pneumoniae assessed as diameter of inhibition zone at 100 ug/ml by disc diffusion method; assay type: functional; details: read-out: DIZ
Candida albicans [4] = test: Antifungal activity against Candida albicans assessed as diameter of inhibition zone at 100 ug/ml by agar disc diffusion method; assay type: functional; details: read-out: DIZ
Aspergillus flavus [5] = test: Antifungal activity against Aspergillus flavus assessed as diameter of inhibition zone at 100 ug/ml by agar disc diffusion method; assay type: functional; details: read-out: DIZ
Staphylococcus aureus [6] = test: Antibacterial activity against Staphylococcus aureus assessed as diameter of inhibition zone at 100 ug/ml by disc diffusion method; assay type: functional; details: read-out: DIZ
[7] = Antioxidant activity assessed as DPPH radical scavenging activity at 12 ug incubated for 30 mins by spectrophotometric analysis; assay type: functional; details: dose 12.0 µg
[8] = Antioxidant activity assessed as DPPH radical scavenging activity at 75 ug/ml incubated for 30 mins by spectrophotometric analysis; assay type: functional; details: dose 75.0 µg/ml
Pseudomonas aeruginosa [9] = test: Antimicrobial activity against Pseudomonas aeruginosa ATCC 27853 assessed as diameter of inhibition zone at 20 mg/ml incubated for 24 hrs by disk diffusion method; assay type: functional; details: read-out: DIZ
Klebsiella pneumoniae [10] = test: Antimicrobial activity against Klebsiella pneumoniae ATCC 15380 assessed as diameter of inhibition zone at 20 mg/ml incubated for 24 hrs by disk diffusion method; assay type: functional; details: read-out: DIZ
Escherichia coli [11] = test: Antimicrobial activity against Escherichia coli ATCC 25922 assessed as diameter of inhibition zone at 20 mg/ml incubated for 24 hrs by disk diffusion method; assay type: functional; details: read-out: DIZ
Candida albicans [12] = test: Antifungal activity against Candida albicans assessed as diameter of inhibition zone incubated for 48 hrs by agar well diffusion method; assay type: functional
Staphylococcus aureus [13] = test: Antibacterial activity against Staphylococcus aureus NCIM 2654 assessed as diameter of inhibition zone incubated for 24 hrs by agar well diffusion method; assay type: functional
Escherichia coli [14] = test: Antibacterial activity against Escherichia coli NCIM 2066 assessed as diameter of inhibition zone incubated for 24 hrs by agar well diffusion method; assay type: functional
[15] = tested on: Mycobacterium tuberculosis; test: Antitubercular activity against Mycobacterium tuberculosis H37Rv assessed as bacterial growth inhibition at 250 ug/ml; assay type: functional
Aspergillus fumigatus = test: Antifungal activity against Aspergillus fumigatus MTCC 227 assessed as fungal growth inhibition by broth microdilution method; assay type: functional
Plasmodium falciparum = test: microbe, parasite or virus in culture
Clostridium tetani = test: Antibacterial activity against Clostridium tetani MTCC 449 assessed as bacterial growth inhibition by broth microdilution method; assay type: functional
[16] = tested on: Mycobacterium tuberculosis; test: Antitubercular activity against Mycobacterium tuberculosis H37Rv assessed as bacterial growth inhibition at 100 ug/ml; assay type: functional
Candida albicans [17] = test: Antifungal activity against Candida albicans MTCC 3008 assessed as fungal growth inhibition by broth microdilution method; assay type: functional
Albumin = Albumin (Bos taurus, UniProt P02769); test: […] bovine serum albumin denaturation incubated for 23 mins by UV-Visible spectrophotometry
Staphylococcus aureus [18] = test: Antibacterial activity against Staphylococcus aureus MTCC 87 assessed as diameter of inhibition zone at 0.1 mg/ml incubated for 24 hrs by agar well diffusion method; assay type: functional; details: read-out: DIZ
[19] = Inhibition of porcine pancreatic alpha-amylase preincubated for 10 mins followed by substrate starch addition and measured after 10 mins by colorimetric analysis; design: species or system Sus scrofa
Alpha-glucosidase = Alpha-glucosidase (Saccharomyces cerevisiae S288c, UniProt P53341+P38158+P07265); test: Inhibition of Saccharomyces cerevisiae alpha-glucosidase preincubated for 5 mins followed by PNP-GLUC substrate addition and measured after 20 mins by spectroscopic analysis; assay type: protein assay
Salmonella typhimurium = test: Antibacterial activity against Salmonella typhimurium MTCC 98 assessed as bacterial growth inhibition by broth microdilution method; assay type: functional, Salmonella enterica subsp. enterica serovar Typhimurium; details: Salmonella enterica
Candida albicans [20] = test: Antifungal activity against Candida albicans assessed as inhibition of fungal growth; assay type: functional
Aspergillus niger = test: Antifungal activity against Aspergillus niger assessed as inhibition of fungal growth; assay type: functional
Aspergillus flavus [21] = test: Antifungal activity against Aspergillus flavus assessed as inhibition of fungal growth; assay type: functional
Escherichia coli [22] = test: Antibacterial activity against Escherichia coli assessed as inhibition of bacterial growth; assay type: functional
Pseudomonas aeruginosa [23] = test: Antibacterial activity against Pseudomonas aeruginosa assessed as inhibition of bacterial growth; assay type: functional
Staphylococcus aureus [24] = test: Antibacterial activity against Staphylococcus aureus assessed as inhibition of bacterial growth; assay type: functional
Pseudomonas aeruginosa [25] = test: Antibacterial activity against Pseudomonas aeruginosa MTCC 741 assessed as diameter of inhibition zone at 0.1 mg/ml incubated for 24 hrs by agar well diffusion method; assay type: functional; details: read-out: DIZ
Escherichia coli [26] = test: Antibacterial activity against Escherichia coli MTCC 723 assessed as diameter of inhibition zone at 0.1 mg/ml incubated for 24 hrs by agar well diffusion method; assay type: functional; details: read-out: DIZ
Klebsiella pneumoniae [27] = test: Antibacterial activity against Klebsiella pneumoniae MTCC 109 assessed as diameter of inhibition zone at 0.1 mg/ml incubated for 24 hrs by agar well diffusion method; assay type: functional; details: read-out: DIZ

Chain of Albumin (P02769 whole entry, the tested form may be a part): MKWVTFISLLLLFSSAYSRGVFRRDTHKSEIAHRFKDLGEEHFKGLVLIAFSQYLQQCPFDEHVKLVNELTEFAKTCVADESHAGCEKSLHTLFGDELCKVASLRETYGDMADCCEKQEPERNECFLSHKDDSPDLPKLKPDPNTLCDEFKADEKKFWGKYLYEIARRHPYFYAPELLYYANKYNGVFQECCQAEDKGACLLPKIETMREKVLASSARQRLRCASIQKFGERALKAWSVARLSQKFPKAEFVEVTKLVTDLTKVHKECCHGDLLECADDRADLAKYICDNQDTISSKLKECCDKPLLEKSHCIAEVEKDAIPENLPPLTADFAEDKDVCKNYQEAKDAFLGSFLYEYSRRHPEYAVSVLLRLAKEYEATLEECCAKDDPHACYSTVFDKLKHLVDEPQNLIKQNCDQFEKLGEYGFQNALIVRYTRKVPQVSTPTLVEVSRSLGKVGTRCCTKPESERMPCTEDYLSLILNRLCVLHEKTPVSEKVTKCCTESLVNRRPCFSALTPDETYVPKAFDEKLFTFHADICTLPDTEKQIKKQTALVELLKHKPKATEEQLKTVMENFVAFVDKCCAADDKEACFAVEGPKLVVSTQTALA

O=c1c(C2c3c(O)ncnc3Oc3[nH]nc(-c4ccccc4)c32)coc2ccccc12 (stereo unspecified)
Activity [1]: 87.5%

CCOC(=O)C1=C(C)Oc2nc(C)n(Cc3cn(-c4ccc(Cl)cc4)nn3)c(=O)c2C1c1ccc([N+](=O)[O-])cc1 (stereo unspecified)
zone of inhibition at 100 µg/mL (Bacillus subtilis): 13 mm
zone of inhibition at 100 µg/mL (Escherichia coli [2]): 17 mm
zone of inhibition at 100 µg/mL (Klebsiella pneumoniae [3]): 16.5 mm
zone of inhibition at 100 µg/mL (Candida albicans [4]): 17.5 mm
zone of inhibition at 100 µg/mL (Aspergillus flavus [5]): 17.5 mm
zone of inhibition at 100 µg/mL (Staphylococcus aureus [6]): 15 mm

O=C1O[C@H]([C@@H](O)CO)C(O)=C1O
Activity [1]: 97.6%
Activity [7]: 94.6%
Activity [8]: 89.4%

Cc1ccc(C2C(C#N)=C(N)Oc3[nH]c(=O)[nH]c(=O)c32)s1 (stereo unspecified)
zone of inhibition at 20000 µg/mL (Pseudomonas aeruginosa [9]): 18 mm
zone of inhibition at 20000 µg/mL (Klebsiella pneumoniae [10]): 16 mm
zone of inhibition at 20000 µg/mL (Escherichia coli [11]): 14 mm

COc1ccc(C2c3c(C)n[nH]c3Oc3[nH]c(=O)[nH]c(=O)c32)cc1 (stereo unspecified)
diameter of the inhibition zone (DIZ) (Candida albicans [12]): 27 mm
diameter of the inhibition zone (DIZ) (Staphylococcus aureus [13]): 27 mm
diameter of the inhibition zone (DIZ) (Escherichia coli [14]): 19 mm

Cc1nn(-c2ccccc2)c(-n2ccnc2)c1C1C(C#N)=C(N)Oc2[nH]c(=S)[nH]c(=O)c21 (stereo unspecified)
inhibition at 250 µg/mL [15]: 37%
MIC (Aspergillus fumigatus): 200 µg/mL (≈ 450 µM)
IC50 (Plasmodium falciparum): 0.97 µg/mL (≈ 2.18 µM)
MIC (Clostridium tetani): 100 µg/mL (≈ 225 µM)
inhibition at 100 µg/mL [16]: 30%
MIC (Candida albicans [17]): 500 µg/mL (≈ 1120 µM)

Cc1ccc(C2c3c(C)n[nH]c3Oc3[nH]c(=O)[nH]c(=O)c32)cc1 (stereo unspecified)
Activity [7]: 71.9%
diameter of the inhibition zone (DIZ) (Candida albicans [12]): 27 mm
diameter of the inhibition zone (DIZ) (Staphylococcus aureus [13]): 25 mm
diameter of the inhibition zone (DIZ) (Escherichia coli [14]): 23 mm

O=C(C1=C(c2ccccc2O)Oc2[nH]c(=S)[nH]c(=O)c2C1c1ccc(Br)cc1)N1CCCCC1 (stereo unspecified)
IC50 (Albumin): 23.1 µM
zone of inhibition at 100 µg/mL (Staphylococcus aureus [18]): 9.1 mm
IC50 [19]: 24.7 µM
IC50 (Alpha-glucosidase): 6855 µM

Cc1nn(-c2ccccc2)c(-n2ccnc2)c1C1C(C#N)=C(N)Oc2c1c(=O)n(C)c(=O)n2C (stereo unspecified)
inhibition at 250 µg/mL [15]: 37%
MIC (Aspergillus fumigatus): 200 µg/mL (≈ 438 µM)
IC50 (Plasmodium falciparum): 0.082 µg/mL (≈ 0.18 µM)
MIC (Salmonella typhimurium): 100 µg/mL (≈ 219 µM)
MIC (Clostridium tetani): 100 µg/mL (≈ 219 µM)
inhibition at 100 µg/mL [16]: 30%
MIC (Candida albicans [17]): 500 µg/mL (≈ 1100 µM)

N#CC1=C(N)Oc2[nH]c(=O)[nH]c(=O)c2C1Cc1ccccc1 (stereo unspecified)
MIC (Candida albicans [20]): 125 µg/mL (≈ 422 µM)
MIC (Aspergillus niger): 162 µg/mL (≈ 548 µM)
MIC (Aspergillus flavus [21]): 150 µg/mL (≈ 506 µM)
MIC (Escherichia coli [22]): 25 µg/mL (≈ 84.4 µM)
MIC (Pseudomonas aeruginosa [23]): 87.5 µg/mL (≈ 295 µM)
MIC (Staphylococcus aureus [24]): 25 µg/mL (≈ 84.4 µM)

CCOC(=O)C1=C(C)Oc2nc(C)n(Cc3cn(-c4cccc(F)c4)nn3)c(=O)c2C1c1ccc([N+](=O)[O-])cc1 (stereo unspecified)
zone of inhibition at 100 µg/mL (Escherichia coli [2]): 15.5 mm
zone of inhibition at 100 µg/mL (Klebsiella pneumoniae [3]): 14.5 mm
zone of inhibition at 100 µg/mL (Aspergillus flavus [5]): 14.5 mm
zone of inhibition at 100 µg/mL (Staphylococcus aureus [6]): 14.5 mm

O=C(C1=C(c2ccccc2O)Oc2[nH]c(=S)[nH]c(=O)c2C1c1ccccc1O)N1CCCCC1 (stereo unspecified)
zone of inhibition at 100 µg/mL (Pseudomonas aeruginosa [25]): 10.1 mm
zone of inhibition at 100 µg/mL (Escherichia coli [26]): 12.2 mm
zone of inhibition at 100 µg/mL (Klebsiella pneumoniae [27]): 11.6 mm
IC50 (Albumin): 26 µM
IC50 [19]: 20.1 µM
IC50 (Alpha-glucosidase): 6197 µM

CCOC(=O)C1=C(C)Oc2nc(C)n(Cc3cn(-c4cccc([N+](=O)[O-])c4)nn3)c(=O)c2C1c1ccc([N+](=O)[O-])cc1 (stereo unspecified)
zone of inhibition at 100 µg/mL (Escherichia coli [2]): 15 mm
zone of inhibition at 100 µg/mL (Candida albicans [4]): 16.5 mm
zone of inhibition at 100 µg/mL (Staphylococcus aureus [6]): 16 mm
